Data as given in patent US10435399B2, “HDAC6 inhibitory heterocyclic compound” (TAKEDA PHARMACEUTICAL COMPANY LIMITED, priority 2017, dated 2019).

Assays:
bone-marrow cells = assay: Micronucleus test in rats (bone-marrow cells); type: in vivo, rats (Crl:CD(SD)); settings: rats, 1000 mg/kg and 2000 mg/kg once daily for 3 days
Protocol: Combination Assay of Micronucleus Test and Comet Assay in Rats […] Bone-marrow smear for micronucleus analysis was prepared as follows. Femur was cut at both ends, and washed with fetal bovine serum (FBS) in a centrifuging tube, and the obtained bone-marrow fluid was centrifuged for 5 min at room temperature. The supernatant was removed, and the cell sediment was suspended in the remaining small amount of the supernatant. A part of the suspension was dropped on a glass slide, and a cover glass was placed thereon to give a bone-marrow smear. The smear was dried well, and fixed with methanol for 5 min. The bone-marrow smear of negative control, that of treatment groups as well as the previously prepared bone-marrow smear of positive control group were encoded, and observed by the blind method. An acridine orange solution (40 μg/mL) was dropped (several drops) to the smear just before observation, and a cover glass was placed thereon. […] In addition, as an index of growth inhibitory effect on bone-marrow cell, total of 500 erythrocytes [immature erythrocytes+mature erythrocytes (ME)] per individual were observed, and immature erythrocyte rate (IE %) relative to the total number of erythrocytes was calculated.

HDAC6 enzyme = biological target: T1, HDAC6 enzyme (Homo sapiens, UniProt Q9UBN7); assay: HDAC6 enzyme inhibitory activity (HDAC-Glo I/II Assay kit); type: biochemical; settings: 10 μM; wells without enzyme = 100% inhibition
T1 construct: transducing full length HDAC6 gene into Sf-9 insect cells; GST; purchased SignalChem; host or cells: Sf-9 insect cells
T1 sequence (Q9UBN7 1-1215): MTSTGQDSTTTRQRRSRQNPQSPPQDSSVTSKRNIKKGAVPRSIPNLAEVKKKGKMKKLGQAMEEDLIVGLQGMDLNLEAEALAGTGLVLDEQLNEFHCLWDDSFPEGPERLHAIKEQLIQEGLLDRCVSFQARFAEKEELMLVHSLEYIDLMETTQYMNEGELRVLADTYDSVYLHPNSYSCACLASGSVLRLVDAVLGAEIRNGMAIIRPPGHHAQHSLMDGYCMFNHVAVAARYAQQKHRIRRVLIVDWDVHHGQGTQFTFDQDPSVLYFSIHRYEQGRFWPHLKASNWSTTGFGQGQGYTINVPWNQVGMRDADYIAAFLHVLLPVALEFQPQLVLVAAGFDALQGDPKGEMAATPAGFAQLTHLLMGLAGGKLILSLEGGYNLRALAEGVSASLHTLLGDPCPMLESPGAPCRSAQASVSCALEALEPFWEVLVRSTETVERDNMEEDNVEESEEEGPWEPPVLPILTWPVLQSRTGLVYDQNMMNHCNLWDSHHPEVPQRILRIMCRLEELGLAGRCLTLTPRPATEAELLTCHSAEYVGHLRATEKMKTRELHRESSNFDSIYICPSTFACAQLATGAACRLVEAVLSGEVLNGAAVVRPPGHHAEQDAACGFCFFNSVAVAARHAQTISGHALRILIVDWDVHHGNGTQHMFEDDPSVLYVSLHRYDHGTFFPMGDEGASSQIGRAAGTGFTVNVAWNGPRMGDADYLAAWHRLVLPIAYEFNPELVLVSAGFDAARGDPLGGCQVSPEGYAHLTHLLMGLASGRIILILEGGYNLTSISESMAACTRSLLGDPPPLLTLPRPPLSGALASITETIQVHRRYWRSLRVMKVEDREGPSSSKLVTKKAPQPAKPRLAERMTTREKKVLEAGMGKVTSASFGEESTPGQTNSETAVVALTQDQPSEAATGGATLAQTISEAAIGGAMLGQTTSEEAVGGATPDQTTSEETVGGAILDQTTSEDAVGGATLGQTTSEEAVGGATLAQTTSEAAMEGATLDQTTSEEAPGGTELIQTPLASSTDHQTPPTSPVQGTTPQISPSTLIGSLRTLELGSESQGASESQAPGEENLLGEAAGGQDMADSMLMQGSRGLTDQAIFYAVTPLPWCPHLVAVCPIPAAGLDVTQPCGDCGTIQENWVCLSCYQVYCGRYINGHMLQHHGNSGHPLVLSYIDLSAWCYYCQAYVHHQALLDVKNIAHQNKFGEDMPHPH
Procedure, shortened: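 Full-length human HDAC6 (GST-purified, Sf-9 expressed) preincubated with compound 60 min at room temperature in Tris-HCl pH 7.5 buffer with MgCl2, KCl, NaCl, glutathione, Tween-20. HDAC-Glo I/II substrate-developer then added, 20 min room temperature, luminescence read. Inhibition relative to no-enzyme wells as 100%.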

O=C1c2cc(-c3nnc(C(F)F)o3)cnc2CN1[C@@H]1CCCC[C@H]1NC(=O)C(F)(F)C(F)(F)F [Example 489, N-((1R,2R)-2-(3-(5-(difluoromethyl)-1,3,4-oxadiazol-2-yl)-5-oxo-5,7-dihydro-6H-pyrrolo[3,4-b]pyridin-6-yl)cyclohexyl)-2,2,3,3,3-pentafluoropropanamide]
genotoxic potential (judgement, micronucleus test and comet assay combined) (bone-marrow cells): negative
micronucleus formation in bone-marrow cell (bone-marrow cells): not induced
HDAC6 inhibitory rate (%) (10 μM) (HDAC6 enzyme): 99%
